# Assay results published in paper PMC7515946, “Targeting of Perforin Inhibitor into the Brain Parenchyma Via a Prodrug Approach Can Decrease Oxidative Stress and Neuroinflammation and Improve Cell Survival” (Molecular Neurobiology, 2020).
# Where two headings read alike, the source gives them in different places.
# What was measured:
# mouse primary astrocytes [1] = test: Intracellular unbound concentrations in astrocytes (RED dialysis, Kp,uu,cell); format: in vitro ADME; conditions: below 500 nM concentrations
# Procedure: The non-specific binding of compounds (100 μM) was determined in astrocyte homogenate by using the Rapid Equilibrium Dialysis (RED) device (Thermo Fisher Scientific, Inc., Waltham, MA, USA). Briefly, the astrocyte cell suspension (10 × 10^6 cells/mL) was homogenized with HBSS by the SoniPerp 150 Plus disintegrator (MSE Ltd., London, UK) (2 s × 3). The studied compound was mixed with 100 μL of cell homogenate and added to the reaction chamber. A 350-μL HBSS buffer was added to the buffer chamber. The dialysis plate was incubated at 37 °C for 4 h with shaking. Fifty microliters of samples were taken from the reaction and buffer chambers and equal size of the buffer or blank homogenate were added, respectively, to yield identical matrices. The proteins were precipitated by adding 100 μL of ice-cold ACN (including the selected internal standard; see above), and the supernatants were collected for LC-MS analysis (see above) after centrifugation at 12,000 × g for 10 min. The unbound drug fraction (fu,cell) was calculated by dividing concentration in the buffer chamber by concentration in the reaction chamber and taking into account the effect of homogenate dilution factor (D = 45 for 10 × 10^6 cells/mL cell suspension according to their weight of the cells) as described earlier.
# The compound concentration ratios in astrocytes (Kp) was determined at 0.01–1.0 μM concentrations by comparing the cellular uptake amount (nmol) in cell lysates (0.1 M NaOH) per astrocyte cell volume (0.05810^−15 L/cell for 10 × 10^4 cells/well) to the concentrations (nM) detected from the surrounding buffer (HBSS) collected before cell lysing as described previously. The unbound drug concentration ratio (Kp,uu) was then calculated by multiplying the drug concentration ratio (Kp) by unbound drug fraction (fu,cell).
# mouse primary astrocytes [2] = test: Transporter-mediated cellular uptake into primary astrocytes; format: in vitro ADME; conditions: for Vmax of cellular uptake (maximum transport capacity): 1–200 μM, 30 min
# Procedure: (§1) For the cell uptake experiments, the astrocytes were seeded on 24-well plates with a density of 10 × 10^4 cells/well 3 days before the experiments. […]; Agilent Technologies, Santa Clara, CA). […] The concentrations of each compound in cell lysates were calculated from the standard curve that was prepared by spiking known amounts of compounds to ACN including the selected internal standard and normalized with protein concentration. The protein concentrations on each plate were determined as a mean of three samples by Bio-Rad Protein Assay, based on the Bradford dye-binding method, using bovine serum albumin (BSA) as a standard protein and measuring the absorbance (595 nm) by a multiplate reader (EnVision, Perkin Elmer, Inc., Waltham, MA, USA).
# [3] = as above; format: in vitro ADME; conditions: C57BL/6JOlaHsd, mouse
# Procedure: as §1
# caspase-3/-7 = test: Caspase-3/-7 in brain of LPS-induced neuroinflammation mice; format: in vivo, mouse; conditions: for Brain caspase-3/-7 amounts, preventative treatment: 30 μmol/kg for 4 days together with LPS 250 μg/kg for 3 days; for Brain caspase-3/-7 amounts, preventative treatment / Brain caspase-3/-7 amounts, curative treatment: relative to control; for Brain caspase-3/-7 amounts, curative treatment: 30 μmol/kg on days 3 and 4, LPS 250 μg/kg for 3 days
# Procedure: Adult male C57BL/6JOlaHsd mice (Jackson Laboratories, Bar Harbor, ME, USA) were supplied by Envigo (Venray, Netherlands). Mice were housed in stainless steel cages on a 12-h light (07:00–19:00) and 12-h dark (19:00–07:00) cycle at an ambient temperature of 22 ± 1 °C with a relative humidity of 50–60%. All experiments were carried out during the light phase. Tap water and food pellets (Lactamin R36; Lactamin AB, Södertälje, Sweden) were available ad libitum. Neuroinflammation was induced by the treatment with LPS 250 μg/kg i.p once per day for 3 consequent days followed by decapitation on the 4th day. The animals were allocated to one of four treatment groups (n = 6 per group): (1) LPS-treated mice, (2) mice treated with LPS and the studied compound (30 μmol/kg; i.v.) for 3 days and 120 min before the decapitation on the 4th day (preventative efficacy), (3) mice treated with LPS for 3 days and with the studied compound (30 μmol/kg; i.v.) only for the last 2 days, and (4) control mice treated with 0.9% NaCl solution i.p. once per day for 3 days. After decapitation, mouse blood and brain samples were collected. […] The plasma layer was centrifuged again at 12,000 × g to remove the platelets. Plasma was stored at − 80 °C until analysis. The brains were snap-frozen in liquid nitrogen and stored at − 80 °C until analysis.
# The effects of the compounds on the enzyme activity of caspase-3 and caspase-7 were evaluated from the snap-frozen mouse brain. Pieces of tissues (n = 3) were homogenized in 50 mM Tris–HCl (pH 7.4) 1:10 (w/v) with a bead mill homogenizer. […] The enzyme activity was measured with an Apo-ONE Homogenous Caspase-3/7 Assay kit (Promega Corporation, Madison, WI, USA) according to the manufacturer’s instruction. The assay was performed on 96-well plates, each sample having 3 replicates. Each of the sample wells contained 100 μL of the previously collected supernatant and 100 μL of the prepared Apo-ONE reagent. The blank measurement was carried out with the homogenization buffer and Apo-ONE reagent. Once all the samples and reagents were pipetted in the wells, the plate was carefully shaken for 30 s and left for incubation in dark at room temperature. The fluorescence was measured after the incubation with an EnVision 2104 Multilabel Reader (PerkinElmer, Waltham, MA, USA), with λex 499 nm and λem 521 nm. The measurement was repeated on multiple time points between 0.5 and 24 h.
# mouse primary astrocytes [4] = test system: mouse primary astrocytes; design: method as in PMID 31492955; conditions: in the presence of a specific LAT1 inhibitor; cited from earlier work
# [5] = design: method as in PMID 26705152; conditions: cited from earlier work
# LAT1 = test system: LAT1; design: method as in PMID 31610281; conditions: human breast adenocarcinoma cells (MCF-7); read-out: IC50 of [14C]-L-leucine uptake (LAT1 binding) in MCF-7 cells; cited from earlier work
# [6] = design: method as in PMID 31492955; conditions: cited from earlier work
# [7] = design: method as in PMID 27266990; conditions: during 5 h incubation; cited from earlier work
# [8] = design: method as in PMID 31492955; conditions: neurons, astrocytes, and microglia homogenates; cited from earlier work
# [9] = 1–200 μM, 30 min, read-out: Km of cellular uptake
Structure (SMILES),Detection in astrocyte cell lysates (mouse primary astrocytes [1]),Vmax of cellular uptake (maximum transport capacity) (mouse primary astrocytes [2]) [nmol/min/mg protein],"Vmax of cellular uptake, Eadie-Hofstee, first transport mechanism (mouse primary astrocytes [2]; mechanism with Km 8.3 μM) [nmol/min/mg protein]","Vmax of cellular uptake, Eadie-Hofstee, second transport mechanism (mouse primary astrocytes [2]; mechanism with Km 680 μM) [nmol/min/mg protein]","Km at 30 min [3, 9] [µM]","Km at 30 min ([3]; read-out: Km of cellular uptake, Eadie-Hofstee, first transport mechanism) [µM]","Km at 30 min ([3]; read-out: Km of cellular uptake, Eadie-Hofstee, second transport mechanism) [µM]","Brain caspase-3/-7 amounts, preventative treatment (caspase-3/-7) [%]","Brain caspase-3/-7 amounts, curative treatment (caspase-3/-7) [%]",Inhibition of cellular uptake into primary astrocytes by a specific LAT1 inhibitor (mouse primary astrocytes [4]),Bioconversion half-life in rat liver S9 subcellular fraction [5],IC50 (LAT1) [µM],Bioconversion half-life in primary mouse astrocyte homogenate [6],Prodrug bioconverted in mouse brain S9 subcellular fraction [7],"Brain caspase-3/-7 levels after prodrug treatment (caspase-3/-7; LPS-induced mice, LPS level given as 117%)",Reduction of brain caspase-3/-7 levels (caspase-3/-7; as stated in the discussion (from 117 to 72–74%)),Half-lives in brain cell homogenates [8] [h]
O=C1OCc2cc(-c3ccc(-c4ccc(CO)cc4)s3)ccc21 [PFI],not detected,1.4 ± 0.4,0.036 ± 0.007,2.53 ± 0.17,98,8.3,680,156,105,,,,,,,,
N[C@H](Cc1cccc(C(=O)OCc2ccc(-c3ccc(-c4ccc5c(c4)COC5=O)s3)cc2)c1)C(=O)O [PFI-PD],,54 ± 7,,,720,,,68,63,over 70%,approximately 55 min,1.54,approximately 6 h,approximately 50%,72–74%,over 40%,4 to 6
